The source made the active and inactive calls. No cut-off for these calls is given here.
Key:
[1] = Antiproliferative activity against human ML-1 cells expressing wild type FLT3 assessed as reduction in cell viability measured after 72 hrs by MTS assay; type: functional, cell-based; conditions: ML1, 72 h
[2] = system: MOLM-13; test: Antiproliferative activity against human MOLM-13 cells harboring FLT3-ITD mutant assessed as reduction in cell viability measured after 72 hrs by MTS assay; type: functional, cell-based; conditions: MOLM-13, 72 h
[3] = system: HL-60; test: Antiproliferative activity against human HL-60 cells expressing wild type FLT3 assessed as reduction in cell viability measured after 72 hrs by MTS assay; type: functional, cell-based; conditions: HL-60, 72 h
[4] = Antiproliferative activity against mouse Ba/F3 FLT3-ITD cells assessed as reduction in cell viability measured after 72 hrs by MTS assay; type: functional, cell-based
[5] = Antiproliferative activity against mouse BaF3 cells expressing wild type FLT3 assessed as reduction in cell viability measured after 72 hrs by MTS assay; type: toxicity, cell-based
[6] = system: MV4-11; test: Antiproliferative activity against human MV4-11 cells harboring FLT3-ITD mutant assessed as reduction in cell viability measured after 72 hrs ny MTS assay; type: functional, cell-based; conditions: MV4-11, 72 h
[7] = molecular target: Receptor-type tyrosine-protein kinase FLT3 (Homo sapiens) (UniProt P36888); test: Inhibition of FLT3 phosphorylation in human MOLM-13 cells assessed as reduction in phosphorylated FLT3 level at 0.3 to 100 nM by sandwich ELISA assay; type: cell-based; conditions: dose 0.3-100 nM
[8] = molecular target: Receptor-type tyrosine-protein kinase FLT3 (Homo sapiens) (UniProt P36888); test: Inhibition of FLT3 phosphorylation in human MV4-11 cells assessed as reduction in phosphorylated FLT3 level at 0.3 to 100 nM by sandwich ELISA assay; type: cell-based; conditions: dose 0.3-100 nM
[9] = molecular target: T1, Receptor-type tyrosine-protein kinase FLT3 (Mus musculus) (UniProt Q00342); test: Inhibition of FLT3 phosphorylation in mouse Ba/F3 FLT3-ITD cells assessed as reduction in phosphorylated FLT3 level at 0.3 to 100 nM by sandwich ELISA assay; type: cell-based; conditions: dose 0.3-100 nM
T1 sequence (whole entry): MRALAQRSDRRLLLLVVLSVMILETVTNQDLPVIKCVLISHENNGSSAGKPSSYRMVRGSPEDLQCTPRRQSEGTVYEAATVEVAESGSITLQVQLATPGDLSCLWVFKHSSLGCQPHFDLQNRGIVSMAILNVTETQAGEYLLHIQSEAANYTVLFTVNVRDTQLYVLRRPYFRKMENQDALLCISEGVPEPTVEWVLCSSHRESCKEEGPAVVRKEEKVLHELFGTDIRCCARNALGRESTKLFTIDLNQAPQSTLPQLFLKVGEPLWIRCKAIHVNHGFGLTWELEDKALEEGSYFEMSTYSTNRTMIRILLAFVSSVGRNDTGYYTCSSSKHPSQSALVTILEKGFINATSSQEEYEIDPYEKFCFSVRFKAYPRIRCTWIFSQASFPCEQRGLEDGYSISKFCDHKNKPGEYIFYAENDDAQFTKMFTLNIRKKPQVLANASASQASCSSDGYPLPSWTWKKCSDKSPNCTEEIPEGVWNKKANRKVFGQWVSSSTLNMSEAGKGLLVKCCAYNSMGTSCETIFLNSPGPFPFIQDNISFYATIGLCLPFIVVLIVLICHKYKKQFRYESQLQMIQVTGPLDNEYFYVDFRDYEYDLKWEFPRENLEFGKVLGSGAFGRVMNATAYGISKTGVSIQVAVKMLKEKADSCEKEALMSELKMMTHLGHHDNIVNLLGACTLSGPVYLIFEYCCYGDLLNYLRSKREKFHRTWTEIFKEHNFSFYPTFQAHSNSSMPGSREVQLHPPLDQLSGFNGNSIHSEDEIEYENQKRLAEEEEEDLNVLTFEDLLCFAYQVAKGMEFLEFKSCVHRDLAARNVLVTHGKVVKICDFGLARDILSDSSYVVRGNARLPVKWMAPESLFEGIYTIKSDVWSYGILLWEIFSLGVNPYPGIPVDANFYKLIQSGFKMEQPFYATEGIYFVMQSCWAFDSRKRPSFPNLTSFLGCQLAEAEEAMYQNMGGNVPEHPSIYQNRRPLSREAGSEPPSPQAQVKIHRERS

[10] = molecular target: Receptor-type tyrosine-protein kinase FLT3 (Homo sapiens, UniProt P36888, ITD); test: Inhibition of FLT3-ITD mutant (unknown origin)
[11] = molecular target: Serine/threonine-protein kinase B-raf (Homo sapiens, UniProt P15056); test: Inhibition of BRAF (unknown origin)
Serine/threonine-protein kinase B-raf, sequence (P15056 whole entry): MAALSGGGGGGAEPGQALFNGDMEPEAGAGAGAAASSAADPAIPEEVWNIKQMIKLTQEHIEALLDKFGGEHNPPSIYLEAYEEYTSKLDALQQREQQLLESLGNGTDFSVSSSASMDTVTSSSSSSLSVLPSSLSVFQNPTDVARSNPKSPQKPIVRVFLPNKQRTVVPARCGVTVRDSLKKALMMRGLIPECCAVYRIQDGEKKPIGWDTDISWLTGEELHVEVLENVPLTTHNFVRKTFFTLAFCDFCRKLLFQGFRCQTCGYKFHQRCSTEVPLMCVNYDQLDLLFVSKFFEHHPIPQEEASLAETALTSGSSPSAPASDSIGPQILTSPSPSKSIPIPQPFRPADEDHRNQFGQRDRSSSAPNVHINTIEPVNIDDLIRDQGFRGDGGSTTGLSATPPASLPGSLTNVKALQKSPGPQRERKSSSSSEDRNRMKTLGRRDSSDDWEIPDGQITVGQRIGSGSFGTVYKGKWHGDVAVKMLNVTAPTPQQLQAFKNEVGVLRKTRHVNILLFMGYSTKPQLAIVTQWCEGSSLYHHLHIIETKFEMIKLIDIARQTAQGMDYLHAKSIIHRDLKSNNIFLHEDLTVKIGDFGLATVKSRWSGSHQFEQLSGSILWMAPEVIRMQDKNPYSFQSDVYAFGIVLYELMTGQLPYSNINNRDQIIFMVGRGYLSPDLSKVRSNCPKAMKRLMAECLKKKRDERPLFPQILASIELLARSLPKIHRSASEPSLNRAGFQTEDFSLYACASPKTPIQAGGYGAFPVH

[12] = molecular target: T1, Receptor-type tyrosine-protein kinase FLT3 (Mus musculus); test: Inhibition of FLT3-mediated signalling pathway in mouse Ba/F3 FLT3-ITD cells assessed as inhibition of STAT5 phosphorylation at 50 nM by western blot analysis; type: cell-based
[13] = system: Monocyte; test: Antiproliferative activity against human peripheral blood monocyte cells assessed as cell growth inhibition at 6 to 200 uM measured after 72 hrs by MTS assay; type: toxicity, cell-based; conditions: dose 6-200 µM
[14] = molecular target: Mast/stem cell growth factor receptor Kit (Homo sapiens, UniProt P10721); test: Inhibition of KIT (unknown origin)
Mast/stem cell growth factor receptor Kit, sequence (P10721 whole entry): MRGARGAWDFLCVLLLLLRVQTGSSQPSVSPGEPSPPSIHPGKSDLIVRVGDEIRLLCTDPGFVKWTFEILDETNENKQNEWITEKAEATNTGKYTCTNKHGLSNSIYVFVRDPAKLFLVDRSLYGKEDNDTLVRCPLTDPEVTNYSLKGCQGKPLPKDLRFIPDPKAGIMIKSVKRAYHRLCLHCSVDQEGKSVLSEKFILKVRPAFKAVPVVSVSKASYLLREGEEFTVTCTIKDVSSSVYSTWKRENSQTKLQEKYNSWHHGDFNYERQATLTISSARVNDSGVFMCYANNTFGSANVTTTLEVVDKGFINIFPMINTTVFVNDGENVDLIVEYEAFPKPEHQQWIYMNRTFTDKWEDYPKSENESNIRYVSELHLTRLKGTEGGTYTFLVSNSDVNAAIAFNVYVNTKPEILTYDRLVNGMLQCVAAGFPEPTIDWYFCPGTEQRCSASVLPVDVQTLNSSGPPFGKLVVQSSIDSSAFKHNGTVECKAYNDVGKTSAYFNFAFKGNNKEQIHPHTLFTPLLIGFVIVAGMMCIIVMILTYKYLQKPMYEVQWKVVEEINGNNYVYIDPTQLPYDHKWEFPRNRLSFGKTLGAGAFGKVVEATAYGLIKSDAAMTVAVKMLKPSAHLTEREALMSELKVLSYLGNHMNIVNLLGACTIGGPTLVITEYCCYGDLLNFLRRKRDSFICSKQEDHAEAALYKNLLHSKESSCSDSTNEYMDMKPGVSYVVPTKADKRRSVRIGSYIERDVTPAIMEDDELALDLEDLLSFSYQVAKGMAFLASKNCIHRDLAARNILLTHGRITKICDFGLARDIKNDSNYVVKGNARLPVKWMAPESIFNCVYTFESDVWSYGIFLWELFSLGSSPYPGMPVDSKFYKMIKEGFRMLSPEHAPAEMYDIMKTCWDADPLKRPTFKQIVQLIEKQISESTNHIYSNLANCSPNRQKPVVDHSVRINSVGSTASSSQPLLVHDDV

[15] = molecular target: Receptor-type tyrosine-protein kinase FLT3 (Homo sapiens) (UniProt P36888); test: Inhibition of FLT3-mediated signalling pathway in human MV4-11 cells assessed as inhibition of STAT5 phosphorylation at 50 nM by western blot analysis; type: cell-based; conditions: TDE = time-dependent effect
[16] = molecular target: T2, Receptor-type tyrosine-protein kinase FLT3 (Homo sapiens, UniProt P36888); test: Inhibition of FLT3 (unknown origin)
T2 sequence (P36888 whole entry): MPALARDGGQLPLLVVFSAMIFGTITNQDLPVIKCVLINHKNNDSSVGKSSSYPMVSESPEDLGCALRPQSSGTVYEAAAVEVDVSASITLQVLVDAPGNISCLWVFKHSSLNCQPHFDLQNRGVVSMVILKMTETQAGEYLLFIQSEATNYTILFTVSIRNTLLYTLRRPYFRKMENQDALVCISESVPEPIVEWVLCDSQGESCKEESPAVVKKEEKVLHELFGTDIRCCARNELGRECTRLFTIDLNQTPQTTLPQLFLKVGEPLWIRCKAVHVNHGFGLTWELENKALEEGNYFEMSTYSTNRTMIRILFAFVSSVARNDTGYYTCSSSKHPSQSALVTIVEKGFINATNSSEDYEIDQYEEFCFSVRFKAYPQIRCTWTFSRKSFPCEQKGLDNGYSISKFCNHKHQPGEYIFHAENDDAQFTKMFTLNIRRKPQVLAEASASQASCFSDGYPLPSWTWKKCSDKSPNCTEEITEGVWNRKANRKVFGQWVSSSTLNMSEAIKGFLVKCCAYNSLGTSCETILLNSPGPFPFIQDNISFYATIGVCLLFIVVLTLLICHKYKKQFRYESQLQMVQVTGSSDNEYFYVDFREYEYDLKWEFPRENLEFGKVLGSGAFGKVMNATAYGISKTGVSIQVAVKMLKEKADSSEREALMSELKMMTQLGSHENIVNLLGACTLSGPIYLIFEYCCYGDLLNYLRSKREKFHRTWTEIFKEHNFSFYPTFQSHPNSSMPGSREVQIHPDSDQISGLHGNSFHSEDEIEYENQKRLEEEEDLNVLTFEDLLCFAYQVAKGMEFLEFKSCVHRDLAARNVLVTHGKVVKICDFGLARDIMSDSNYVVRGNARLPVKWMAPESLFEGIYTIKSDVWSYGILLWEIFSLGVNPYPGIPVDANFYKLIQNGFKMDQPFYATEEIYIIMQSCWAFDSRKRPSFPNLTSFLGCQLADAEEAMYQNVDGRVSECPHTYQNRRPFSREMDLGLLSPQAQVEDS

[17] = molecular target: T1, Receptor-type tyrosine-protein kinase FLT3 (Mus musculus); test: Inhibition of FLT3-mediated signalling pathway in mouse Ba/F3 FLT3-ITD cells assessed as inhibition of MAPK phosphorylation at 50 nM by western blot analysis; type: cell-based; conditions: TDE = time-dependent effect
[18] = molecular target: Receptor-type tyrosine-protein kinase FLT3 (Homo sapiens) (UniProt P36888); test: Inhibition of FLT3-mediated signalling pathway in human MV4-11 cells assessed as inhibition of MAPK phosphorylation at 50 nM by western blot analysis; type: cell-based; conditions: TDE = time-dependent effect
[19] = molecular target: Receptor-type tyrosine-protein kinase FLT3 (Homo sapiens) (UniProt P36888); test: Inhibition of FLT3 phosphorylation in human MV4-11 cells assessed as reduction in phosphorylated FLT3 level measured after 12 hrs by western blot analysis; type: cell-based
[20] = molecular target: T1, Receptor-type tyrosine-protein kinase FLT3 (Mus musculus); test: Inhibition of FLT3 phosphorylation in mouse Ba/F3 FLT3-ITD cells assessed as reduction in phosphorylated FLT3 level measured after 12 hrs by western blot analysis; type: cell-based
[21] = molecular target: Fibroblast growth factor receptor 1 (Homo sapiens, UniProt P11362); test: Inhibition of FGFR1 (unknown origin)
Fibroblast growth factor receptor 1, sequence (P11362 whole entry): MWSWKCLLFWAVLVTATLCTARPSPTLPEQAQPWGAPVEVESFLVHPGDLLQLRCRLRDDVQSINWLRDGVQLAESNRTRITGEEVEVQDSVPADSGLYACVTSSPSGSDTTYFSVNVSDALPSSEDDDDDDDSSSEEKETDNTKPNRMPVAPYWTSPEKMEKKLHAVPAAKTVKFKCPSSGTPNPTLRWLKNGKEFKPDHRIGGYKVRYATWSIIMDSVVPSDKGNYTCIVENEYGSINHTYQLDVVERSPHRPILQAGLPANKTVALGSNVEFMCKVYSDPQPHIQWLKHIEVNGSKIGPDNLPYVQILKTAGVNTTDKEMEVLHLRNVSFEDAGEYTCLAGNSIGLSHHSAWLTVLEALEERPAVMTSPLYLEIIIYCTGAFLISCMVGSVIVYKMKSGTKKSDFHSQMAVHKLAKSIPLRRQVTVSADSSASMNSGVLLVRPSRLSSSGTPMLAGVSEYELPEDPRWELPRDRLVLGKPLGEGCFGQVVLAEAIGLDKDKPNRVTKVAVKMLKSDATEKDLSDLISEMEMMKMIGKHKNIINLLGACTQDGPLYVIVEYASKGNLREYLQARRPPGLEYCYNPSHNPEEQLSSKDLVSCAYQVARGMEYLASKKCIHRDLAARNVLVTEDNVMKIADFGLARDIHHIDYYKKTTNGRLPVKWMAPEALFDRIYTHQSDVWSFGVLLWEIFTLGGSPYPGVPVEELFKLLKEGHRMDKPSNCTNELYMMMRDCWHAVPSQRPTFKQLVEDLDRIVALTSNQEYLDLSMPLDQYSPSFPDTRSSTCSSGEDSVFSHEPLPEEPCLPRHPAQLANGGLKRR

| IC50 [2] [nM] | IC50 [3] [nM] | IC50 [6] [nM] | Compound | IC50 [1] [nM] | IC50 [4] [nM] | IC50 at 72 h [5] [nM] | other results |
| --- | --- | --- | --- | --- | --- | --- | --- |
| 69.8 | > 50000 | 167 | OCCOc1ccc(CNc2ccc3c(c2)ncn3-c2ccccc2)cc1OCCO | > 50000 | 77.8 | > 400 | – |
| 78.2 | > 50000 | 197 | COc1ccc(CNc2ccc3c(c2)ncn3-c2ccccc2)cc1OCCO | > 50000 | 75.4 | > 400 | – |
| – | 500 | – | CNC(=O)c1cc(Oc2ccc(NC(=O)Nc3ccc(Cl)c(C(F)(F)F)c3)cc2)ccn1 [SORAFENIB] | 500 | – | – | – |
| 113 | > 50000 | 189 | COc1ccc(CNc2ccc3c(c2)ncn3-c2ccccc2)cc1OC | > 50000 | 94.8 | > 400 | inhibition [7]: Active; inhibition [8]: Active; inhibition [9]: Active; IC50 [10]: 90 nM; IC50 [11]: > 1000 nM; inhibition [12]: Active; Activity [13]: Not Active; IC50 [14]: 451 nM; inhibition [15]: Tde; IC50 [16]: 30 nM; inhibition [17]: Tde; inhibition [18]: Tde; Activity [19]: 1 nM; Activity [20]: 10 nM; IC50 [21]: > 1000 nM |
